SMILES strings stand for the structures.

In general, EC50 refers to the concentration that produces a half-maximal response.

Data set [1] relates to rat oligodendrocyte progenitor cells. Briefly: Promotive activity of rat oligodendrocyte progenitor cell differentiation-1 (MBP gene expression, mRNA). Type of data set: cell-based. Particulars: Rattus norvegicus, Oligodendrocyte progenitor cell, 96 h, read-out: promotive activity at T3 base (MBP gene expression; DMSO 0%, T3 100%), 4 days, MBP/β actin mRNA. The procedure, abridged: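 Primary OPCs from 1-day-old SD rat forebrain, isolated by shaking off mixed glial cultures and seeded at 2×10^3 cells/well in B27/CNTF (10 ng/mL) differentiation medium with compound. MBP mRNA measured by one-step TaqMan real-time PCR and expressed as MBP/β-actin ratio.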

The target in another data set is T1, human VDR (Homo sapiens, UniProt P11473).
T1 sequence (P11473 1-427): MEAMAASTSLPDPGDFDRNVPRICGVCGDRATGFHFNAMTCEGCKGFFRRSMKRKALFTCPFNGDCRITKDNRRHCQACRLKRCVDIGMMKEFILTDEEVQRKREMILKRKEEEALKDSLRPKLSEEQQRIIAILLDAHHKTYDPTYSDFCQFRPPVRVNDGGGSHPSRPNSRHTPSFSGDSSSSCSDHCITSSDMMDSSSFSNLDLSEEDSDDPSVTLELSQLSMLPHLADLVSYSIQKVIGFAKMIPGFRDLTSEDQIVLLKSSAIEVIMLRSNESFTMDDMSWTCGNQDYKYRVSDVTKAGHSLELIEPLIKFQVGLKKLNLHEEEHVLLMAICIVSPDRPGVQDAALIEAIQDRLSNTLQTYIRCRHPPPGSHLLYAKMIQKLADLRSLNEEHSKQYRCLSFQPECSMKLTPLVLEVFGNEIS
T1 sequence (P19793 1-462 partner): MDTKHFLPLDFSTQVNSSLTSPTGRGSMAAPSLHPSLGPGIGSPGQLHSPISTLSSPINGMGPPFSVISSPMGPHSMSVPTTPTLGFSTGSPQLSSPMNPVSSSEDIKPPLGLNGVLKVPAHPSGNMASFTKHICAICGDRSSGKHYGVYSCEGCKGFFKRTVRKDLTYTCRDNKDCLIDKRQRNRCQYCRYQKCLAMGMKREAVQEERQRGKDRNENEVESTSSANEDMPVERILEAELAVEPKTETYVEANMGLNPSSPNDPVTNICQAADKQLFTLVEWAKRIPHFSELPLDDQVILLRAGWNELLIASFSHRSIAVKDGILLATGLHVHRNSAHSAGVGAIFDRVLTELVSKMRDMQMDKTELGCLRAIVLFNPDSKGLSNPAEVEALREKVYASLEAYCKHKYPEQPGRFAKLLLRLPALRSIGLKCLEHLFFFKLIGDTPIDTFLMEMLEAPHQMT
Briefly: Evaluation of VDR transcription activity in human osteoblasts (HOS cells), luciferase reporter. Particulars: Activity (EC50, VDR transcription activity), HOS cells transfected with human VDR, human RXRα and DR3 luciferase reporter; 21 hours. Background: Reporter assays use an easily measured gene product as a stand-in for the process of interest.

Data set [2] in a line: Evaluation of brain penetration in mice (blood and brain concentration at brain Cmax). Type of data set: in vivo, mouse. Particulars: 1 mg/kg single oral dose, C57BL/6J mice; for Concentration in blood (mean ± SD) at brain Cmax / Concentration in brain (mean ± SD) at brain Cmax: n=3; for Kp: male, C57BL/6J, mouse, brain/plasma, po, 1 mg/kg, read-out: Concentration in brain/in blood ratio at brain Cmax. The procedure, abridged: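 Male C57BL/6J mice (8 weeks, n=3) dosed orally once at 1 […] mg/kg; plasma and brain collected at 0.25, 0.5, 1, 2, 4 and 8 h. Compound extracted with acetonitrile from brain homogenate and plasma, quantified by LC/MS/MS.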

For data set [3], the system named is rat oligodendrocyte progenitor cells. Description: Promotive activity of rat oligodendrocyte progenitor cell differentiation-2 (immunostaining of MBP). The class given is cell-based. The note with it: vitamin D derivative 2 μM, T3 30 nM, 4 days. The procedure, abridged:
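Rat OPCs prepared by shaking in separation medium about 22 h at 37 °C, 200 rpm, and collecting the supernatant.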

With `C=C1/C(=C\C=C2/CCC[C@]3(C)[C@@H]([C@H](C)CN4CC[C@H](C(F)F)C4)CC[C@@H]23)C[C@@H](O)[C@H](C)[C@@H]1O` [Compound B021, (1R,2S,3 S,Z)-5-(2-((1R,3aS,7aR,E)-1-((S)-1-((S)-3-(difluoromethyl)pyrrolidin-1-yl)propan-2-yl)-7a-methyloctahydro-4H-inden-4-ylidene)ethylidene)-2-methyl-4-methylenecyclohexane-1,3-diol], in data set [1], the activation at 1 µM is at least 20%. The compound further came in with a concentration for a half-maximal effect (EC50) at human VDR of 10 to 100 nM. Also, in data set [2], the “Concentration in blood (mean ± SD) at brain Cmax” value was 320 ± 53 nM, the “Concentration in brain (mean ± SD) at brain Cmax” value is 237 ± 33 pmol/g and the Kp was determined as 0.74.
As for `C=C1/C(=C\C=C2/CCC[C@]3(C)[C@@H]([C@H](C)CN4CC[C@@H](C(F)F)C4)CC[C@@H]23)C[C@@H](O)C[C@@H]1O` [Compound B024, (1R,3 S,Z)-5-(2-((1R,3aS,7aR,E)-1-((S)-1-((R)-3-(difluoromethyl)pyrrolidin-1-yl)propan-2-yl)-7a-methyloctahydro-4H-inden-4-ylidene)ethylidene)-4-methylenecyclohexane-1,3-diol], the activation at 1 µM in data set [1] is at least 20%. Besides, the “Mean (number of MBP-positive cells/number of Hoechst33342-positive cells)” value in data set [3] (Test 1) came to 0.28. Besides, in data set [2], the “Concentration in blood (mean ± SD) at brain Cmax” value is given as 431 ± 46 nM, the “Concentration in brain (mean ± SD) at brain Cmax” value came to 652 ± 85 pmol/g and the Kp stood at 1.51.
As for `C[C@H](CN1CC[C@@H](C(F)F)C1)[C@H]1CC[C@H]2/C(=C/C=C3C[C@@H](O)C[C@H](O)C3)CCC[C@]12C` [Compound B026, (1R,3R)-5-(2-((1R,3aS,7aR,E)-1-((S)-1-((R)-3-(difluoromethyl)pyrrolidin-1-yl)propan-2-yl)-7a-methyloctahydro-4H-inden-4-ylidene)ethylidene)cyclohexane-1,3-diol], the activation at 1 µM in data set [1] is at least 20%. The compound further gave a 50% effective concentration (EC50) on human VDR of 10 to 100 nM. For the same compound, the “Mean (number of MBP-positive cells/number of Hoechst33342-positive cells)” value in data set [3] (Test 1) was determined as 0.38. Moreover, in data set [2], the “Concentration in blood (mean ± SD) at brain Cmax” value is listed as 218 ± 31 nM, the “Concentration in brain (mean ± SD) at brain Cmax” value is on record as 384 ± 40 pmol/g and the Kp was 1.76.
`C=C1[C@H](O)CC(=C/C=C2\CCC[C@]3(C)[C@@H]([C@H](C)CN4CC[C@@H](C(F)F)C4)CC[C@@H]23)C[C@H]1O` [Compound B027, (1R,3R)-5-(2-((1R,3aS,7aR,E)-1-((S)-1-((R)-3-(difluoromethyl)pyrrolidin-1-yl)propan-2-yl)-7a-methyloctahydro-4H-inden-4-ylidene)ethylidene)-2-methylenecyclohexane-1,3-diol]: the activation at 1 µM in data set [1] was at least 20%. The EC50 on human VDR was 1 to 10 nM. For the same compound, the “Mean (number of MBP-positive cells/number of Hoechst33342-positive cells)” value in data set [3] (Test 1) was 0.29. Moreover, in data set [2], the “Concentration in blood (mean ± SD) at brain Cmax” value was determined as 126 ± 14 nM, the “Concentration in brain (mean ± SD) at brain Cmax” value stood at 414 ± 40 pmol/g and the Kp amounted to 3.29.
Take `C=C1[C@H](O)CC(=C/C=C2\CCC[C@]3(C)[C@@H]([C@H](C)CN4CC[C@H](CC(F)F)C4)CC[C@@H]23)C[C@H]1O` [Compound B040, (1R,3R)-5-(2-((1R,3aS,7aR,E)-1-((S)-1-((R)-3-(2,2-difluoroethyl)pyrrolidin-1-yl)propan-2-yl)-7a-methyloctahydro-4H-inden-4-ylidene)ethylidene)-2-methylenecyclohexane-1,3-diol]: the activation at 1 µM in data set [1] was at least 20%. Besides, the EC50 on human VDR is 1 to 10 nM. Also, the “Mean (number of MBP-positive cells/number of Hoechst33342-positive cells)” value in data set [3] (Test 1) turned out to be 0.59. Further, in data set [2], the “Concentration in blood (mean ± SD) at brain Cmax” value is 70 ± 10 nM, the “Concentration in brain (mean ± SD) at brain Cmax” value stood at 153 ± 35 pmol/g and the Kp came out at 2.18.
For the compound `C[C@H](CN1CC[C@H](OC(F)F)C1)[C@H]1CC[C@H]2/C(=C/C=C3C[C@@H](O)C[C@H](O)C3)CCC[C@]12C` [Compound B051, (1R,3R)-5-(2-((1R,3aS,7aR,E)-1-((S)-1-((S)-3-(difluoromethoxy)pyrrolidin-1-yl)propan-2-yl)-7a-methyloctahydro-4H-inden-4-ylidene)ethylidene)cyclohexane-1,3-diol], the activation at 1 µM in data set [1] was at least 20%. In addition, the EC50 on human VDR was in the range of 10 to 100 nM. Further, the “Mean (number of MBP-positive cells/number of Hoechst33342-positive cells)” value in data set [3] (Test 2) came to 0.45. For the same compound, in data set [2], the “Concentration in blood (mean ± SD) at brain Cmax” value is listed as 304 ± 35 nM, the “Concentration in brain (mean ± SD) at brain Cmax” value is recorded as 644 ± 92 pmol/g and the Kp turned out to be 2.12.
As to `C=C1[C@H](O)CC(=C/C=C2\CCC[C@]3(C)[C@@H]([C@H](C)CN4CC[C@H](OCC(F)F)C4)CC[C@@H]23)C[C@H]1O` [Compound B055, (1R,3R)-5-(2-((1R,3aS,7aR,E)-1-((S)-1-((S)-3-(2,2-difluoroethoxy)pyrrolidin-1-yl)propan-2-yl)-7a-methyloctahydro-4H-inden-4-ylidene)ethylidene)-2-methylenecyclohexane-1,3-diol], in data set [1], the activation at 1 µM was at least 20%. The compound further gave a concentration giving a half-maximal response (EC50) at human VDR of 1 to 10 nM. In addition, the “Mean (number of MBP-positive cells/number of Hoechst33342-positive cells)” value in data set [3] (Test 2) is given as 0.56. Also, in data set [2], the “Concentration in blood (mean ± SD) at brain Cmax” value is given as 309 ± 17 nM, the “Concentration in brain (mean ± SD) at brain Cmax” value came to 327 ± 28 pmol/g and the Kp turned out to be 1.06.
On to `C=C1[C@H](O)CC(=C/C=C2\CCC[C@]3(C)[C@@H]([C@H](C)CCN4CCOCC4)CC[C@@H]23)C[C@H]1O` [Compound D024, (1R,3R)-5-(2-((1R,3aS,7aR,E)-7a-methyl-1-((R)-4-morpholinobutan-2-yl)octahydro-4H-inden-4-ylidene)ethylidene)-2-methylenecyclohexane-1,3-diol], for which the activation at 1 µM in data set [1] was at least 20%. Also, in data set [3] (Test 2), the “Mean (number of MBP-positive cells/number of Hoechst33342-positive cells)” value is recorded as 0.39. Moreover, in data set [2], the “Concentration in blood (mean ± SD) at brain Cmax” value amounted to 368 ± 26 nM, the “Concentration in brain (mean ± SD) at brain Cmax” value is on record as 726 ± 88 pmol/g and the Kp is 1.97.
For the compound `C[C@H](CCN1CCOC2(CC2)C1)[C@H]1CC[C@H]2/C(=C/C=C3C[C@@H](O)C[C@H](O)C3)CCC[C@]12C` [Compound D030, (1R,3R)-5-(2-((1R,3aS,7aR,E)-1-((R)-4-(4-oxa-7-azaspiro[2.5]octan-7-yl)butan-2-yl)-7a-methyloctahydro-4H-inden-4-ylidene)ethylidene)cyclohexane-1,3-diol], the activation at 1 µM in data set [1] was at least 20%. The EC50 at human VDR was 1 to 10 nM.
For `C=C1[C@H](O)CC(=C/C=C2\CCC[C@]3(C)[C@@H]([C@H](C)CCN4CCOC[C@H]4C)CC[C@@H]23)C[C@H]1O` [Compound D031, (1R,3R)-5-(2-((1R,3aS,7aR,E)-7a-methyl-1-((R)-4-((R)-3-methylmorpholino)butan-2-yl)octahydro-4H-inden-4-ylidene)ethylidene)-2-methylenecyclohexane-1,3-diol], in that order: at least 20% and 1 to 10 nM.
For `C=C1[C@H](O)CC(=C/C=C2\CCC[C@]3(C)[C@@H]([C@H](C)CCN4CCOC[C@@H]4C)CC[C@@H]23)C[C@H]1O` [Compound D032, (1R,3R)-5-(2-((1R,3aS,7aR,E)-7a-methyl-1-((R)-4-((S)-3-methylmorpholino)butan-2-yl)octahydro-4H-inden-4-ylidene)ethylidene)-2-methylenecyclohexane-1,3-diol], in that order: at least 20% and 10 to 100 nM.
Consider `C[C@H](CCN1CCO[C@@H](C)C1)[C@H]1CC[C@H]2/C(=C/C=C3C[C@@H](O)C[C@H](O)C3)CCC[C@]12C` [Compound D041, (1R,3R)-5-(2-((1R,3aS,7aR,E)-7a-methyl-1-((R)-4-((S)-2-methylmorpholino)butan-2-yl)octahydro-4H-inden-4-ylidene)ethylidene)cyclohexane-1,3-diol], for which, in data set [1], the activation at 1 µM is at least 20%. This compound registered an EC50 at human VDR of 100 to 1000 nM.

The values above are taken from patent US20230348376A1 (TEIJIN PHARMA LIMITED, priority 2020, published 2023).
